The values that follow come from patent publication US9006257B2, “Bicyclic compounds as mPGES-1 inhibitors” (Glenmark Pharmaceuticals S.A., priority 2012, dated 2015).

The experiment has as its target T1, Recombinant human mPGES-1 (Homo sapiens, UniProt O14684).
T1 construct: made in house; host or cells: CHO cells
T1 sequence (O14684 1-152): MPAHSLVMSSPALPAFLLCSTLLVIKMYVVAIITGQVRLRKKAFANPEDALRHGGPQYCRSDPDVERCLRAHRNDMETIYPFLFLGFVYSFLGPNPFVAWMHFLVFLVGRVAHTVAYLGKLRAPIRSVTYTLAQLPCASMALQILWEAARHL
Put plainly: In-vitro mPGES-1 inhibitor screening (inhibition of PGE2 formation from PGH2, HTRF detection). The experiment is classed as biochemical. Conditions: for inhibition at 1 µM: 1 μM test compound, read-out: Percentage inhibition at 1 μM; for inhibition at 1 µM / inhibition at 10 µM: crude microsomal fraction, 15 μM PGH2; for inhibition at 10 µM: 10 μM test compound, read-out: Percentage inhibition at 10 μM; for IC50: class symbol, concentration response curve. An excerpt: In-Vitro Protocol for Screening of mPGES-1 Inhibitors:
mPGES-1 (microsomal prostaglandin E synthase-1) is a microsomal enzyme that converts endoperoxide substrate PGH2 (prostaglandin H2) to product PGE2 (prostaglandin E2) by isomerization in the presence of reduced glutathione (GSH). mPGES-1 inhibitors were screened by assessing their ability to inhibit formation of PGE2 from PGH2 in presence of mPGES-1 using an anti-PGE2 antibody based detection method. Recombinant human mPGES-1 was generated in-house by expression in CHO cells (Ouellet M et al. (2002), Protein Expression and Purification 26: 489-495). The assay was set up using crude microsomal fractions at protein concentration of 40-60 μg/mL. Test compounds were prepared in 100% dimethyl sulfoxide (DMSO) to obtain 20 mM stock solution and then diluted using assay buffer comprising 0.1 M Potassium phosphate buffer with 2 mM EDTA. The final concentration of DMSO in reaction was 0.5% (v/v). Negative controls were comprised of all assay reagents except the enzyme. Positive controls were comprised of the enzyme reaction in the absence of any inhibitor. Test compounds were incubated for 10 minutes in assay buffer containing 2.5 mM GSH and mPGES-1 enzyme followed by addition of PGH2 at a concentration of 15 μM for 1 minute. The reaction was stopped by addition of Stannous chloride (11 mg/ml) and PGE2 levels were measured (Masse F et al. (2005), Journal of Biomolecular Screening 10(6) 599-605., Goedken R E et al. (2008), Journal of Biomolecular Screening 13(7): 619-625) by HTRF kit (CisBio)).
Inhibition of mPGES-1 enzyme activity was measured using the percent of reaction occurring in the positive control. Concentration response curves were plotted using percent inhibition of maximum enzyme reaction. The IC50 value was calculated from the concentration response curve by nonlinear regression analysis using GraphPad PRISM software.
For orientation: In TR-FRET formats the signal depends on donor and acceptor labels being close together.

The structures appear in SMILES notation.

One may read the inhibition as the drop in the measured response relative to a control, in per cent. As usually defined, the IC50 is the concentration that gives 50% inhibition.

Consider `CC(C)(C)C(=O)NCc1ccc(Cl)c(C(=O)Nc2cccc3c(Nc4cccc(C(F)(F)F)c4)nccc23)c1F` [Example-1, 6-Chloro-2-fluoro-3-(pivalamidomethyl)-N-(1-((3-(trifluoromethyl)phenyl)amino)isoquinolin-5-yl)benzamide], for which the inhibition at 1 µM was 95.2%, the inhibition at 10 µM came to 96.7% and the IC50 is < 50 nM.
For `CC(C)(C)C(=O)NCc1ccc(Cl)c(C(=O)Nc2cccc3c(Nc4cccc(C(F)(F)F)c4)nccc23)n1` [Example-2, 3-Chloro-6-(pivalamidomethyl)-N-(1-((3-(trifluoromethyl)phenyl)amino)isoquinolin-5-yl)picolinamide], the inhibition at 1 µM came to 95.8%, the inhibition at 10 µM is 97.2% and the half-maximal inhibitory concentration (IC50) was < 50 nM.
With `Cc1ccc(CNC(=O)C(C)(C)C)c(C)c1C(=O)Nc1cccc2c(Nc3cccc(C(F)(F)F)c3)nccc12` [Example-3, 2,6-Dimethyl-3-(pivalamidomethyl)-N-(1-((3-(trifluoromethyl)phenyl)amino)isoquinolin-5-yl)benzamide], the inhibition at 1 µM is 96%, the inhibition at 10 µM amounted to 98.1% and the IC50 was < 50 nM.
With `CC(C)(C)C(=O)NCc1ccc(Cl)c(C(=O)Nc2cccc3c(Nc4cccc(C(F)(F)F)c4)nccc23)c1` [Example-4, 2-Chloro-5-(pivalamidomethyl)-N-(1-((3-(trifluoromethyl)phenyl)amino)isoquinolin-5-yl)benzamide], the inhibition at 1 µM came to 98.6%, the inhibition at 10 µM came to 99.8% and the IC50 is < 50 nM.
Turning to `CC(C)(C)C(=O)NCc1ccc(Cl)c(C(=O)Nc2cccc3c(Oc4cccc(C(F)(F)F)c4)nccc23)c1F` [Example-5, 6-Chloro-2-fluoro-3-(pivalamidomethyl)-N-(1-(3-(trifluoromethyl)phenoxy)isoquinolin-5-yl)benzamide], the inhibition at 1 µM came out at 99.5%, the inhibition at 10 µM was found to be 98.5% and the IC50 was < 50 nM.
The like results for `CC(C)(C)C(=O)NCc1ccc(Cl)c(C(=O)Nc2cccc3c(Oc4cccc(C(F)(F)F)c4)nccc23)n1` [Example-6, 3-Chloro-6-(pivalamidomethyl)-N-(1-(3-(trifluoromethyl)phenoxy)isoquinolin-5-yl)picolinamide] were, in that order, 93%, 95.9% and 50 to 100 nM.
As for `CC(C)(C)C(=O)NCc1ccc(Cl)c(C(=O)Nc2cccc3c(Oc4cccc(C(F)(F)F)c4)nccc23)c1` [Example-7, 2-Chloro-5-(pivalamidomethyl)-N-(1-(3-(trifluoromethyl)phenoxy)isoquinolin-5-yl)benzamide], the inhibition at 1 µM is 100%, the inhibition at 10 µM stood at 96.7% and the IC50 is < 50 nM.
Taken in the same sequence, the figures for `CC(C)(C)C(=O)NCc1ccc(Cl)c(C(=O)Nc2cccc3c(Nc4cccc(C(F)(F)F)c4)ncnc23)n1` [Example-8, 3-Chloro-6-(pivalamidomethyl)-N-(4-((3-(trifluoromethyl)phenyl)amino)quinazolin-8-yl)picolinamide] were 99%, 98% and < 50 nM.
Take `CC(C)(C)C(=O)NCc1ccc(Cl)c(C(=O)Nc2cccc3c(Oc4cccc(C(F)(F)F)c4)ncnc23)n1` [Example-9, 3-Chloro-6-(pivalamidomethyl)-N-(4-(3-(trifluoromethyl)phenoxy)quinazolin-8-yl)picolinamide]: the inhibition at 1 µM turned out to be 99.1%, the inhibition at 10 µM came out at 100% and the IC50 was < 50 nM.
Taken in the same sequence, the figures for `CC(C)(C)C(=O)NCc1ccc(Cl)c(C(=O)Nc2cccc3c(Oc4cccc(C(F)(F)F)c4)ncnc23)c1` [Example-10, 2-Chloro-5-(pivalamidomethyl)-N-(4-(3-(trifluoromethyl)phenoxy)quinazolin-8-yl)benzamide] were 99.7%, 98.9% and < 50 nM.
For `CC(C)(C)C(=O)NCc1ccc(Cl)c(C(=O)Nc2cccc3c(Oc4cccc(C(F)(F)F)c4)ncnc23)c1F` [Example-11, 6-Chloro-2-fluoro-3-(pivalamidomethyl)-N-(4-(3-(trifluoromethyl)phenoxy)quinazolin-8-yl)benzamide], the inhibition at 1 µM turned out to be 97.4%, the inhibition at 10 µM was determined as 90.7% and the IC50 was < 50 nM.
For `CC(C)(C)C(=O)NCc1ccc(Cl)c(C(=O)Nc2cccc3c(Nc4cccc(C(F)(F)F)c4)ncnc23)c1F` [Example-12, 6-Chloro-2-fluoro-3-(pivalamidomethyl)-N-(4-((3-(trifluoromethyl)phenyl)amino)quinazolin-8-yl)benzamide], the inhibition at 1 µM was found to be 99.4%, the inhibition at 10 µM is 99.7% and the IC50 was < 50 nM.
For `CC(C)(C)C(=O)NCc1ccc(Cl)c(C(=O)Nc2cccc3c(Nc4cccc(C(F)(F)F)c4)ncnc23)c1` [Example-13, 2-Chloro-5-(pivalamidomethyl)-N-(4-((3-(trifluoromethyl)phenyl)amino)quinazolin-8-yl)benzamide], the inhibition at 1 µM stood at 90.2%, the inhibition at 10 µM came out at 92.2% and the IC50 is < 50 nM.
Take `CC(C)(C)C(=O)NCc1ccc(Cl)c(C(=O)Nc2cccc3c(NC4CCC(F)(F)CC4)ncnc23)c1` [Example-14, 2-Chloro-N-(4-((4,4-difluorocyclohexyl)amino)quinazolin-8-yl)-5-(pivalamidomethyl)benzamide]: the inhibition at 1 µM is 100%, the inhibition at 10 µM was determined as 100% and the IC50 was < 50 nM.
With `CC1(C)CCC(Oc2ncnc3c(NC(=O)c4cc(CNC(=O)C(C)(C)C)ccc4Cl)cccc23)CC1` [Example-15, 2-Chloro-N-(4-((4,4-dimethylcyclohexyl)oxy)quinazolin-8-yl)-5-(pivalamidomethyl)benzamide], the inhibition at 1 µM worked out at 98.1%, the inhibition at 10 µM came out at 97.5% and the IC50 was < 50 nM.
For the compound `CC(C)(C)C(=O)NCc1ccc(Cl)c(C(=O)Nc2cccc3c(Oc4cccc(C(F)(F)F)c4)ccnc23)c1` [Example-16, 2-Chloro-5-(pivalamidomethyl)-N-(4-(3-(trifluoromethyl)phenoxy)quinolin-8-yl)benzamide], the inhibition at 1 µM worked out at 99%, the inhibition at 10 µM came to 99.6% and the IC50 is < 50 nM.
Taken in the same sequence, the figures for `CC(C)(C)C(=O)NCc1ccc(Cl)c(C(=O)Nc2cccc3c(Oc4cccc(C(F)(F)F)c4)ccnc23)n1` [Example-17, 3-Chloro-6-(pivalamidomethyl)-N-(4-(3-(trifluoromethyl)phenoxy)quinolin-8-yl)picolinamide] were 94.3%, 93.9% and < 50 nM.
`CC(C)(C)C(=O)NCc1ccc(Cl)c(C(=O)Nc2cccc3c(Oc4cccc(C(F)(F)F)c4)ccnc23)c1F` [Example-18, 6-Chloro-2-fluoro-3-(pivalamidomethyl)-N-(4-(3-(trifluoromethyl)phenoxy)quinolin-8-yl)benzamide]: the inhibition at 1 µM worked out at 100%, the inhibition at 10 µM came to 99.9% and the IC50 is < 50 nM.
`CC(C)(C)C(=O)NCc1ccc(Cl)c(C(=O)Nc2ccnc3c(Nc4cccc(C(F)(F)F)c4)cccc23)c1` [Example-19, 2-Chloro-5-(pivalamidomethyl)-N-(8-((3-(trifluoromethyl)phenyl)amino)quinolin-4-yl)benzamide]: the inhibition at 1 µM is 97.7%, the inhibition at 10 µM was 98.2% and the IC50 was < 50 nM.
For the compound `CC(C)(C)C(=O)NCc1ccc(Cl)c(C(=O)Nc2cccc3c(NC4CCC(F)(F)CC4)ncnc23)c1F` [Example-20, 6-Chloro-N-(4-((4,4-difluorocyclohexyl)amino)quinazolin-8-yl)-2-fluoro-3-(pivalamidomethyl)benzamide], the inhibition at 1 µM was 98.8%, the inhibition at 10 µM was found to be 99.4% and the IC50 is < 50 nM.
Taken in the same sequence, the figures for `CC(C)(C)C(=O)NCc1ccc(Cl)c(C(=O)Nc2cccc3c(Nc4cc(C(F)(F)F)ccc4F)ncnc23)c1F` [Example-21, 6-Chloro-2-fluoro-N-(4-((2-fluoro-5-(trifluoromethyl)phenyl)amino)quinazolin-8-yl)-3-(pivalamidomethyl)benzamide] were 97.3%, 97.2% and < 50 nM.
